Experimental data from US6156700A, “3-(1,2-Benzisothiazol- and isoxazol-5-yl)-2,4(1H,3H)-pyrimidinedione or thione and 3-(1,2-benzisothiazol- and isoxazol-5-yl)-4(3H)-pyrimidinone or thione herbicidal agents” (American Cyanmid Company, priority 1998, dated 2000).

How the values were obtained:
[1] = tested on: Sicklepod, Cassia obtusifolia; test: Preemergence herbicidal evaluation, CASOB; type: in vivo, L.; conditions: 0.2500 kg/ha
Text: (§1) Results of herbicide evaluation are expressed on a rating scale (0-9). The scale is based upon a visual observation of plant stand, vigor, malformation, size, chlorosis and overall plant appearance as compared with a control.
(§2) The preemergence herbicidal activity of the test compounds of the present invention is exemplified by the following tests in which the seeds of a variety of monocotyledonous and dicotyledonous plants are separately mixed with potting soil and planted on top of approximately one inch of soil in separate pint cups. After planting, the cups are sprayed with the selected aqueous acetone solution containing test compound in sufficient quantity to provide the equivalent of about 0.0156 to 0.500 kg per hectare of test compound per cup. The treated cups are then placed on greenhouse benches, watered and cared for in accordance with conventional greenhouse procedures. From four to five weeks after treatment, the tests are terminated and each cup is examined and rated according to the rating system provided in Example 185.
(§3) The compounds evaluated are reported by compound number given in Example 185.

[2] = tested on: Lambsquarters, Common, Chenopodium album; test: Preemergence herbicidal evaluation, CHEAL; type: in vivo, L.; conditions: 0.2500 kg/ha
Text: as §1, §2, §3

[3] = tested on: Soybean, Williams, Glycine max; test: Preemergence herbicidal evaluation, GLXMAW; type: in vivo, (L.) Merr. cv Williams; conditions: 0.2500 kg/ha
Text: as §1, §2, §3

[4] = tested on: Foxtail, Green, Setaria viridis; test: Preemergence herbicidal evaluation, SETVI; type: in vivo, (L.) Beau; conditions: 0.2500 kg/ha
Text: as §1, §2, §3

[5] = tested on: Lambsquarters, Common, Chenopodium album; test: Postemergence herbicidal evaluation, CHEAL; type: in vivo, L.; conditions: 0.0630 kg/ha
Method in brief: (§4)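 Test compounds, formulated in equal parts acetone and water plus 0.5% TWEEN 20, are applied by nozzle (40 psi) to seedlings about two weeks old at roughly 0.0157–0.500 kg/ha. Injury is scored 0–9 visually 4–5 weeks later, with multiple tests averaged.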

[6] = tested on: Barnyardgrass, Echinochloa crus-galli; test: Postemergence herbicidal evaluation, ECHCG; type: in vivo, (L.) Beau; conditions: 0.0630 kg/ha
Method in brief: as §4

[7] = tested on: Wheat, Winter, cv Riband, Triticum aestivum; test: Postemergence herbicidal evaluation, TRZAWR; type: in vivo; conditions: 0.0630 kg/ha
Method in brief: as §4

Corn, Field, Zea mays [8] = test: Postemergence herbicidal evaluation, ZEAMX; type: in vivo, L.; conditions: 0.0630 kg/ha
Method in brief: as §4

[9] = tested on: Rice, Tebonnet, Oryza sativa; test: Preemergence herbicidal evaluation, ORYSAT; type: in vivo, (L.) Tebonnet; conditions: 0.2500 kg/ha
Text: as §1, §2, §3

[10] = tested on: Barnyardgrass, Echinochloa crus-galli; test: Preemergence herbicidal evaluation, ECHCG; type: in vivo, (L.) Beau; conditions: 0.2500 kg/ha
Text: as §1, §2, §3

[11] = tested on: Soybean, Williams, Glycine max; test: Postemergence herbicidal evaluation, GLXMAW; type: in vivo, (L.) Merr. cv Williams; conditions: 0.0630 kg/ha
Method in brief: as §4

Galium, Galium aparine [12] = test: Preemergence herbicidal evaluation, GALAP; type: in vivo; conditions: 0.2500 kg/ha
Text: as §1, §2, §3

[13] = tested on: Morningglory, Ivyleaf, Ipomoea hederacea; test: Postemergence herbicidal evaluation, IPOHE; type: in vivo, (L.) Jacq.; conditions: 0.0630 kg/ha
Method in brief: as §4

Corn, Field, Zea mays [14] = test: Preemergence herbicidal evaluation, ZEAMX; type: in vivo, L.; conditions: 0.2500 kg/ha
Text: as §1, §2, §3

[15] = tested on: Sicklepod, Cassia obtusifolia; test: Postemergence herbicidal evaluation, CASOB; type: in vivo, L.; conditions: 0.0630 kg/ha
Method in brief: as §4

[16] = tested on: Velvetleaf, Abutilon theophrasti; test: Preemergence herbicidal evaluation, ABUTH; type: in vivo, Medic.; conditions: 0.2500 kg/ha
Text: as §1, §2, §3

[17] = tested on: Rice, Tebonnet, Oryza sativa; test: Postemergence herbicidal evaluation, ORYSAT; type: in vivo, (L.) Tebonnet; conditions: 0.0630 kg/ha
Method in brief: as §4

[18] = tested on: Velvetleaf, Abutilon theophrasti; test: Postemergence herbicidal evaluation, ABUTH; type: in vivo, Medic.; conditions: 0.0630 kg/ha
Method in brief: as §4

[19] = tested on: Foxtail, Green, Setaria viridis; test: Postemergence herbicidal evaluation, SETVI; type: in vivo, (L.) Beau; conditions: 0.0630 kg/ha
Method in brief: as §4

[20] = tested on: Morningglory, Ivyleaf, Ipomoea hederacea; test: Preemergence herbicidal evaluation, IPOHE; type: in vivo, (L.) Jacq.; conditions: 0.2500 kg/ha
Text: as §1, §2, §3

[21] = tested on: Ragweed, Common, Ambrosia artemisifolia; test: Preemergence herbicidal evaluation, AMBEL; type: in vivo, L.; conditions: 0.2500 kg/ha
Text: as §1, §2, §3

[22] = tested on: Ragweed, Common, Ambrosia artemisifolia; test: Postemergence herbicidal evaluation, AMBEL; type: in vivo, L.; conditions: 0.0630 kg/ha
Method in brief: as §4

Galium, Galium aparine [23] = test: Postemergence herbicidal evaluation, GALAP; type: in vivo; conditions: 0.0630 kg/ha
Method in brief: as §4

[24] = tested on: Wheat, Winter, cv Riband, Triticum aestivum; test: Preemergence herbicidal evaluation, TRZAWR; type: in vivo; conditions: 0.2500 kg/ha
Text: as §1, §2, §3

ECHCG = test: Preemergence herbicidal evaluation; type: in vivo; parameters: scale not given here
Description: (§5) The preemergence and postemergence herbicidal properties of certain compounds of the present invention are compared with certain compounds disclosed in U.S. Pat. Nos. 5,484,763 and 5,523,278. The evaluations are performed as described in Examples 185 and 186. Data in Tables V and VI are reported by the compound number given in Example 185 for the compounds of this invention or by comparative compound letter for the compounds disclosed in U.S. Pat. Nos. 5,484,763 and 5,523,278.

TRZAWR = test: Preemergence herbicidal evaluation; type: in vivo; parameters: scale not given here
Description: as §5

AMBEL = test: Preemergence herbicidal evaluation; type: in vivo; parameters: scale not given here
Description: as §5

CHEAL = test: Preemergence herbicidal evaluation; type: in vivo; parameters: scale not given here
Description: as §5

CASOB = test: Preemergence herbicidal evaluation; type: in vivo; parameters: scale not given here
Description: as §5

ZEAMX = test: Preemergence herbicidal evaluation; type: in vivo; parameters: scale not given here
Description: as §5

GALAP = test: Preemergence herbicidal evaluation; type: in vivo; parameters: scale not given here
Description: as §5

ABUTH = test: Preemergence herbicidal evaluation; type: in vivo; parameters: scale not given here
Description: as §5

GLXMAW = test: Preemergence herbicidal evaluation; type: in vivo; parameters: scale not given here
Description: as §5

SETVI = test: Preemergence herbicidal evaluation; type: in vivo; parameters: scale not given here
Description: as §5

IPOHE = test: Preemergence herbicidal evaluation; type: in vivo
Description: as §5

ORYSAT = test: Preemergence herbicidal evaluation; type: in vivo, Oryza sativa; parameters: scale not given here
Description: as §5

SMILES: COC(=O)C(C)Oc1ccc(C(C)C)cc1-c1nsc2ccc(-n3c(=O)cc(C(F)(F)F)n(C)c3=O)cc12 (stereo not drawn) [Compound 30, Methyl 2-{2-{5-[3,6-dihydro-3-methyl-4-(trifluoromethyl)-2,6-dioxo-1(2H)-pyrimidinyl]-1,2-benzisothiazol-3-yl}-4-isopropylphenoxy}propionate]
- herbicide rating (0-9) [1]: 9.0
- herbicide rating (0-9) [2]: 9.0
- herbicide rating (0-9) [3]: 6.0
- herbicide rating (0-9) [4]: 9.0
- herbicide rating (0-9) [5]: 9.0
- herbicide rating (0-9) [6]: 9.0
- herbicide rating (0-9) [7]: 7.5
- herbicide rating (0-9) (Corn, Field, Zea mays [8]): 9.0
- herbicide rating (0-9) [9]: 6.0
- herbicide rating (0-9) [10]: 7.0
- herbicide rating (0-9) [11]: 7.0
- herbicide rating (0-9) (Galium, Galium aparine [12]): 7.0
- herbicide rating (0-9) [13]: 9.0
- herbicide rating (0-9) (Corn, Field, Zea mays [14]): 7.0
- herbicide rating (0-9) [15]: 9.0
- herbicide rating (0-9) [16]: 9.0
- herbicide rating (0-9) [17]: 7.5
- herbicide rating (0-9) [18]: 9.0
- herbicide rating (0-9) [19]: 9.0
- herbicide rating (0-9) [20]: 9.0
- herbicide rating (0-9) [21]: 9.0
- herbicide rating (0-9) [22]: 9.0
- herbicide rating (0-9) (Galium, Galium aparine [23]): 5.0
- herbicide rating (0-9) [24]: 7.0

SMILES: CN(C)C(=O)c1nsc2ccc(-n3c(=O)cc(C(F)(F)F)n(C)c3=O)cc12 [Compound 329, 1,2-Benzisothiazole-3-carboxamide,5-[3,6-dihydro-3-methyl-2,6-dioxo-4-(trifluoromethyl)-1(2H)-pyrimidinyl]-N,N-dimethyl-]
- herbicidal effect rating (ECHCG; 0.0156-0.0160 kg/ha): 0.0
- herbicidal effect rating (ECHCG; 0.0313-0.0320 kg/ha): 1.0
- herbicidal effect rating (ECHCG; 0.0620-0.0630 kg/ha): 4.5
- herbicidal effect rating (ECHCG; 0.1250 kg/ha): 7.0
- herbicidal effect rating (ECHCG; 0.2500 kg/ha): 9.0
- herbicidal effect rating (TRZAWR; 0.0156-0.0160 kg/ha): 1.0
- herbicidal effect rating (TRZAWR; 0.0313-0.0320 kg/ha): 2.0
- herbicidal effect rating (TRZAWR; 0.0620-0.0630 kg/ha): 4.0
- herbicidal effect rating (TRZAWR; 0.1250 kg/ha): 6.0
- herbicidal effect rating (TRZAWR; 0.2500 kg/ha): 7.0
- herbicidal effect rating (AMBEL; 0.0156-0.0160 kg/ha): 3.0
- herbicidal effect rating (AMBEL; 0.0313-0.0320 kg/ha): 7.0
- herbicidal effect rating (AMBEL; 0.0620-0.0630 kg/ha): 8.0
- herbicidal effect rating (AMBEL; 0.1250 kg/ha): 9.0
- herbicidal effect rating (AMBEL; 0.2500 kg/ha): 9.0
- herbicidal effect rating (CHEAL; 0.0156-0.0160 kg/ha): 9.0
- herbicidal effect rating (CHEAL; 0.0313-0.0320 kg/ha): 9.0
- herbicidal effect rating (CHEAL; 0.0620-0.0630 kg/ha): 9.0
- herbicidal effect rating (CHEAL; 0.1250 kg/ha): 9.0
- herbicidal effect rating (CHEAL; 0.2500 kg/ha): 9.0
- herbicidal effect rating (CASOB; 0.0156-0.0160 kg/ha): 0.5
- herbicidal effect rating (CASOB; 0.0313-0.0320 kg/ha): 2.0
- herbicidal effect rating (CASOB; 0.0620-0.0630 kg/ha): 7.0
- herbicidal effect rating (CASOB; 0.1250 kg/ha): 9.0
- herbicidal effect rating (CASOB; 0.2500 kg/ha): 8.5
- herbicidal effect rating (ZEAMX; 0.0156-0.0160 kg/ha): 1.5
- herbicidal effect rating (ZEAMX; 0.0313-0.0320 kg/ha): 2.5
- herbicidal effect rating (ZEAMX; 0.0620-0.0630 kg/ha): 6.5
- herbicidal effect rating (ZEAMX; 0.1250 kg/ha): 7.0
- herbicidal effect rating (ZEAMX; 0.2500 kg/ha): 7.5
- herbicidal effect rating (GALAP; 0.0156-0.0160 kg/ha): 1.0
- herbicidal effect rating (GALAP; 0.0313-0.0320 kg/ha): 1.0
- herbicidal effect rating (GALAP; 0.0620-0.0630 kg/ha): 6.0
- herbicidal effect rating (GALAP; 0.1250 kg/ha): 9.0
- herbicidal effect rating (GALAP; 0.2500 kg/ha): 9.0
- herbicidal effect rating (ABUTH; 0.0156-0.0160 kg/ha): 9.0
- herbicidal effect rating (ABUTH; 0.0313-0.0320 kg/ha): 9.0
- herbicidal effect rating (ABUTH; 0.0620-0.0630 kg/ha): 9.0
- herbicidal effect rating (ABUTH; 0.1250 kg/ha): 9.0
- herbicidal effect rating (ABUTH; 0.2500 kg/ha): 9.0
- herbicidal effect rating (GLXMAW; 0.0156-0.0160 kg/ha): 5.0
- herbicidal effect rating (GLXMAW; 0.0313-0.0320 kg/ha): 6.0
- herbicidal effect rating (GLXMAW; 0.0620-0.0630 kg/ha): 7.5
- herbicidal effect rating (GLXMAW; 0.1250 kg/ha): 9.0
- herbicidal effect rating (GLXMAW; 0.2500 kg/ha): 8.0
- herbicidal effect rating (SETVI; 0.0156-0.0160 kg/ha): 1.5
- herbicidal effect rating (SETVI; 0.0313-0.0320 kg/ha): 2.5
- herbicidal effect rating (SETVI; 0.0620-0.0630 kg/ha): 9.0
- herbicidal effect rating (SETVI; 0.1250 kg/ha): 9.0
- herbicidal effect rating (SETVI; 0.2500 kg/ha): 9.0
- herbicidal effect rating (IPOHE; 0.0156-0.0160 kg/ha): 2.5
- herbicidal effect rating (IPOHE; 0.0313-0.0320 kg/ha): 4.0
- herbicidal effect rating (IPOHE; 0.0620-0.0630 kg/ha): 8.0
- herbicidal effect rating (IPOHE; 0.1250 kg/ha): 9.0
- herbicidal effect rating (IPOHE; 0.2500 kg/ha): 9.0
- herbicidal effect rating (ORYSAT; 0.0156-0.0160 kg/ha): 1.5
- herbicidal effect rating (ORYSAT; 0.0313-0.0320 kg/ha): 2.5
- herbicidal effect rating (ORYSAT; 0.0620-0.0630 kg/ha): 5.0
- herbicidal effect rating (ORYSAT; 0.1250 kg/ha): 6.5
- herbicidal effect rating (ORYSAT; 0.2500 kg/ha): 8.0
